Reference: patent publication US4335138A, “Novel carbamates, their preparation, and pharmaceutical formulations containing these compounds” (BASF Aktiengesellschaft, priority 1979, dated 1982)

Legend:
[1] = tested on: rats; assay: Hypnotic action on intraperitoneal administration (period of absence of the righting reflex, duration of sleep); type: in vivo, female Sprague-Dawley rats; settings: for ED (60 min sleep): Rattus norvegicus, 1 h, dose which causes a 60 minute period of sleep, regression analysis
Description: To investigate the hypnotic action, these substances are administered intraperitoneally to groups of 4-8 female Sprague-Dawley rats each weighing 145-200 g. The period of absence of the righting reflex (ie. the duration of sleep) served as a criterion of the hypnotic action.
Linear relationships exist between the logarithms of the administered doses (mg/kg) and the logarithms of the period of sleep (min), from which relationships the dose which causes a 60 minute period of sleep is calculated, as the ED 60 min, by regression analysis.

[2] = in vivo; settings: rat, ip; for selectivity ratio: Therapeutic range
Description: (§1) The acute toxicity is determined on groups of 10 rats of the same strain as above, again for intraperitoneal administration.
(§2) The comparison substance used is the well known hypnotic Ethinamate (1-ethynyl-cyclohexyl carbamate).

[3] = tested on: rats; assay: in vivo; settings: rat, ip, 681 mg/kg
Description: as §1, §2

[4] = German Laid-Open Application DOS No. 2,346,305; cited from earlier work

SMILES	ED (60 min sleep) ([1]; ip, intraperitoneal, rats)	R.A. (relative activity) ([1]; rat, in vivo, ip)	LD50 at 6 h [2]	selectivity ratio [2]	Mortality rate [3]	R.A. (relative activity) ([1]; Ethinamate = 1.00, intraperitoneal, rats)	Analgesic properties (in words), prior art [4]
CC(=O)[C@]1(COC(=O)NC2CCCC2)C[C@@H]2C=C[C@H]1C2 (relative stereo) [Example 15, exo-2-(N-cyclopentylcarbamyloxymethyl)-norborn-5-en-2-yl methyl ketone]	46.4 mg/kg	1.49	247 mg/kg	5.3	–	–	–
CC(=O)[C@]1(COC(=O)NC(C)C2CC2)C[C@@H]2C=C[C@H]1C2 (stereo partly drawn) [Example 98, exo-2-[N-(1-cyclopropylethyl)-carbamyloxymethyl]-norborn-5-en-2-yl methyl ketone]	30.3 mg/kg	2.29	≥ 681 mg/kg	≥ 22.5	0/10	–	–
CC(=O)[C@]1(COC(=O)NCC(C)C)C[C@@H]2C=C[C@H]1C2 (relative stereo) [Example 87, exo-2-(N-(2-methylpropyl)-carbamyloxymethyl)-norborn-5-en-2-yl methyl ketone]	46.7 mg/kg	1.48	482 mg/kg	10.3	–	–	–
CC(=O)[C@]1(COC(=O)NC(C)C)C[C@@H]2C=C[C@H]1C2 (relative stereo) [Example 7, exo-2-(N-isopropylcarbamyloxymethyl)-norborn-5-en-2-yl methyl ketone]	20.7 mg/kg	3.35	137 mg/kg	6.6	–	–	–
C#CC1(OC(N)=O)CCCCC1 [Ethinamate, 1-ethynyl-cyclohexyl carbamate, reference compound]	69.3 mg/kg	–	–	–	–	1.00	–
CC(=O)[C@]1(COC(=O)NC2CC2)C[C@@H]2C=C[C@H]1C2 (relative stereo) [Example 109, exo-2-(N-cyclopropylcarbamyloxymethyl)-norborn-5-en-2-yl methyl ketone]	27.2 mg/kg	2.55	187 mg/kg	6.9	–	–	–
CC(=O)[C@]1(COC(=O)NC(C)C)C[C@@H]2CC[C@H]1C2 (relative stereo) [Example 36, exo-2-(N-isopropylcarbamyloxymethyl)-norborn-2-yl methyl ketone]	37.6 mg/kg	1.84	464 mg/kg	12.3	–	–	–
CCCNC(=O)OCC1(C(C)=O)CC=CCC1 (stereo not shown) [Example 52, 1-(N-propylcarbamyloxymethyl)-cyclohex-3-enyl methyl ketone]	28.5 mg/kg	2.43	215 mg/kg	7.5	–	–	–
CNC(=O)OC1OC(=O)C2C3C=CC(C3)C12 (stereo not shown) [4-oxa-5-(5-methylcarbamyloxy)-tricyclo[5,2,1,0^2,6]-dec-8-en-3-one]	–	–	–	–	–	–	exhibit analgesic properties
CCCNC(=O)OC[C@@]1(C(C)=O)C[C@@H]2C=C[C@H]1C2 (relative stereo) [Example 4, exo-2-(N-n-propylcarbamyloxymethyl)-norborn-5-en-2-yl methyl ketone]	21.5 mg/kg	3.22	392 mg/kg	18.2	–	–	–
CCC(C)NC(=O)OC[C@@]1(C(C)=O)C[C@@H]2C=C[C@H]1C2 (stereo partly drawn) [Example 88, exo-2-(N-but-2-yl-carbamyloxymethyl)-norborn-5-en-2-yl methyl ketone]	30.8 mg/kg	2.25	150 mg/kg	4.9	–	–	–
